Laboratory results reported in US8969380B2, “Secondary 8-hydroxyquinoline-7-carboxamide derivatives for use as antifungal agents” (Polichem SA, priority 2009, dated 2015).
Values after ≈ are worked out from the molar mass of the structure shown.

How the values were obtained:
[1] = tested on: Scopulariopsis Brevicaulis (ATCC 36840); assay: Broth micro-dilution susceptibility test (MIC); assay type: cell-based; conditions: ATCC36840, 120 h, geometric mean of two single experiments, five days at 35° C.
Protocol: (§1) Trichophyton Rubrum (ATCC 28188, PBI International); Trichophyton Mentagrophytes (ATCC 9533, PBI International); Aspergillus Niger (ATCC 16404, PBI International); Scopulariopsis Brevicaulis (ATCC 36840, DSMZ); Candida Albicans (ATCC 90028, PBI International); Candida Glabrata (ATCC 90030, DSMZ).
(§2) Strains were prepared from freeze-dried ampoules or freeze-dried pellets. An isolation of the suspensions was made on Potato Dextrose Agar (PDA) to test the strains purity. A strains' massive growth was then made streaking microbial suspensions on PDA plates.
(§3) Incubation was at 30° C. for 48-72 Hours (Candida yeasts) and for 7-10 days (filamentous fungi).
(§4) The yeasts' colonies and the filamentous fungi's conidia were harvested with 3-5 mL of RPMI 1640+50% glycerol and the aliquots frozen at −80° C.
(§5) Compounds' minimal inhibition concentration (MIC) was determined through broth micro-dilution susceptibility test using a method developed in agreement with the National Committee for Clinical Laboratory Standards (NCCLS) (National Committee for Clinical Laboratory Standards. Reference Method for Broth Dilution Antifungal Susceptibility Testing of Yeasts; Approved standard-Second Edition M27-A2. 2002; Vol. 22, No. 15) (National Committee for Clinical Laboratory Standards. Reference Method for Broth Dilution Antifungal Susceptibility Testing of Filamentous Fungi; Approved standard M38-A. 2002; Vol. 22, No. 16).
(§6) Assays were carried out in RPMI 1640 with L-glutamine medium buffered to pH 7 with 0.165M 3-(N-morpholino)propanesulfonic acid (MOPS) and 10M NaOH and supplemented with 18 g glucose/liter. The tests were performed using 96 well sterile plates (inoculum size of 1×10^5 CFU/mL). Compounds stock solutions were prepared at 12.8 mg/mL in 100% DMSO. A series of twofold dilutions were prepared in plate using RPMI 1640. Final concentrations ranged from 0.125 to 128 μg/mL at 1% DMSO.

[2] = tested on: Candida Glabrata (ATCC 90030); assay: Broth micro-dilution susceptibility test (MIC); assay type: cell-based; conditions: Nakaseomyces glabratus, ATCC90030; geometric mean of two single experiments; 48 h at 35° C.
Protocol: as §1, §2, §3, §4, §5, §6

[3] = tested on: Trichophyton Rubrum (ATCC 28188); assay: Broth micro-dilution susceptibility test (MIC); assay type: cell-based; conditions: ATCC28188, 120 h, geometric mean of two single experiments, five days at 35° C., read-out: MIC Trycophyton Rubrum ATCC 28188
Protocol: as §1, §2, §3, §4, §5, §6

[4] = tested on: Trichophyton Mentagrophytes (ATCC 9533); assay: Broth micro-dilution susceptibility test (MIC); assay type: cell-based; conditions: ATCC9533, 120 h, geometric mean of two single experiments, five days at 35° C., read-out: MIC Tricophyton Mentagrophytes ATCC 9533
Protocol: as §1, §2, §3, §4, §5, §6

[5] = tested on: Aspergillus Niger (ATCC 16404); assay: Broth micro-dilution susceptibility test (MIC); assay type: cell-based; conditions: ATCC16404, 120 h, geometric mean of two single experiments, five days at 35° C.
Protocol: as §1, §2, §3, §4, §5, §6

[6] = tested on: Candida Albicans (ATCC 90028); assay: Broth micro-dilution susceptibility test (MIC); assay type: cell-based; conditions: ATCC90028, geometric mean of two single experiments, 48 h at 35° C.
Protocol: as §1, §2, §3, §4, §5, §6

invasive aspergillosis = conditions: daily administered at 10 mg/kg; cited from earlier work
[7] = tested on: Candida Glabrata (ATCC 90030); assay: Assessment of the mechanism of action: antifungal activity with or without 100 μM Fe3+; assay type: cell-based; conditions: 100 μM FeCl3 in the test medium, OD at 540 nm
Protocol: To verify if the compounds mechanism of action is the chelation of iron ions, the MIC determination with Candida glabrata (ATCC 90030) strain was performed by the addition of excessive iron ions (100 μM FeCl3) in the test medium. The viability of cells exposed to drugs, with or without the metal ion Fe^3+, was evaluated by the OD measure at 540 nm.
The potency of compounds described in Example 3, 4, 11 12, E8 and NiK-29298 were evaluated on Candida glabrata in presence and in absence of 100 μM (100 micromoles) Fe^3+.
In all figures, the lines and dots represent the percent inhibition of the fungal growth (in ordinate) by adding different concentrations of antifungal agents (in abscissa). Blue lines and dots are the experiments performed without iron supplementation, while red lines and dots represent the results of the experiments performed in presence of 100 μM Fe^3+. […] Conversely, Fe^3+ has no effect on amphotericin, an antifungal agent known in the art to have a mechanism of action different from that of ciclopirox.

[8] = tested on: 6 strains tested, including yeasts, dermatophytes and molds; assay: Spectrum of antifungal activity over the 6 strains tested; assay type: cell-based; conditions: 6 strains: yeasts
Protocol: as §1, §5, §6

Compound	MIC [1]	MIC [2]	MIC [3]	MIC [4]	MIC [5]	MIC [6]	rates of nephrotoxicity (invasive aspergillosis)	Effect of Fe3+ on the antifungal activity (percent inhibition of fungal growth) [7]	Spectrum of antifungal activity [8]
O=C(NCc1ccc(C(F)(F)F)cc1)c1ccc2cccnc2c1O [Example 6, 8-Hydroxy-N-(4-(trifluoromethyl)benzyl)quinoline-7-carboxamide]	1.41 µg/mL (≈ 4.07 µM)	1.41 µg/mL (≈ 4.07 µM)	1.41 µg/mL (≈ 4.07 µM)	1 µg/mL (≈ 2.89 µM)	0.5 µg/mL (≈ 1.44 µM)	1.41 µg/mL (≈ 4.07 µM)			
C[C@@H]1[C@H](O)[C@@H](C)/C=C/C=C/C=C/C=C/C=C/C=C/C=C/[C@H](O[C@@H]2O[C@H](C)[C@@H](O)[C@H](N)[C@@H]2O)C[C@@H]2O[C@](O)(C[C@@H](O)C[C@@H](O)[C@H](O)CC[C@@H](O)C[C@@H](O)CC(=O)O[C@H]1C)C[C@H](O)[C@H]2C(=O)O [amphotericin, Amphotericin B]							31%	no effect	
COc1ccc(NC(=O)c2ccc3cccnc3c2O)cc1 [Example 5, 8-Hydroxy-N-(4-methoxyphenyl)quinoline-7-carboxamide]	0.71 µg/mL (≈ 2.41 µM)	0.71 µg/mL (≈ 2.41 µM)	0.35 µg/mL (≈ 1.19 µM)	0.5 µg/mL (≈ 1.7 µM)	0.71 µg/mL (≈ 2.41 µM)	0.5 µg/mL (≈ 1.7 µM)			
O=C(NCc1ccccc1)c1ccc2cccnc2c1O [Example 3, 8-Hydroxy-N-benzyl-quinoline-7-carboxamide]	0.35 µg/mL (≈ 1.26 µM)	1 µg/mL (≈ 3.59 µM)	0.35 µg/mL (≈ 1.26 µM)	0.18 µg/mL (≈ 0.647 µM)	0.18 µg/mL (≈ 0.647 µM)	1 µg/mL (≈ 3.59 µM)			
O=C(NCC1CCCCC1)c1ccc2cccnc2c1O [Example 2, 8-Hydroxy-N-(cyclohexylmethyl)quinoline-7-carboxamide]	2 µg/mL (≈ 7.03 µM)	1.41 µg/mL (≈ 4.96 µM)	1 µg/mL (≈ 3.52 µM)	0.71 µg/mL (≈ 2.5 µM)	0.35 µg/mL (≈ 1.23 µM)	1.41 µg/mL (≈ 4.96 µM)			
O=C(NCc1ccccc1)c1ccc2ncccc2c1 [NiK-29298]								not inhibited	active only on yeasts
O=C(NCc1ccc(OCc2ccccc2)cc1)c1ccc2ncccc2c1 [Example E8]								not inhibited	active only on yeasts
O=C(NCc1cccnc1)c1ccc2cccnc2c1O [Example 10, 8-Hydroxy-N-(pyridin-3-ylmethyl)quinoline-7-carboxamide]	1 µg/mL (≈ 3.58 µM)	11.3 µg/mL (≈ 40.5 µM)	2 µg/mL (≈ 7.16 µM)	2 µg/mL (≈ 7.16 µM)	1 µg/mL (≈ 3.58 µM)	4 µg/mL (≈ 14.3 µM)			
COc1ccc(CNC(=O)c2ccc3cccnc3c2O)cc1 [Example 11, 8-Hydroxy-N-(4-methoxybenzyl)quinoline-7-carboxamide]	1 µg/mL (≈ 3.24 µM)		1 µg/mL (≈ 3.24 µM)	1 µg/mL (≈ 3.24 µM)	1 µg/mL (≈ 3.24 µM)	2 µg/mL (≈ 6.49 µM)			
O=C(NCc1ccccc1O)c1ccc2cccnc2c1O [Example 8, 8-Hydroxy-N-(2-hydroxybenzyl)quinoline-7-carboxamide]	1 µg/mL (≈ 3.4 µM)	2 µg/mL (≈ 6.8 µM)	0.71 µg/mL (≈ 2.41 µM)	0.5 µg/mL (≈ 1.7 µM)	0.25 µg/mL (≈ 0.849 µM)	2 µg/mL (≈ 6.8 µM)			
O=C(NCc1cccs1)c1ccc2cccnc2c1O [Example 1, 8-Hydroxy-N-(thiophen-2-ylmethyl)quinoline-7-carboxamide]	0.25 µg/mL (≈ 0.879 µM)	1 µg/mL (≈ 3.52 µM)	0.5 µg/mL (≈ 1.76 µM)	0.5 µg/mL (≈ 1.76 µM)	0.25 µg/mL (≈ 0.879 µM)	1 µg/mL (≈ 3.52 µM)			
O=C(NCc1ccc(Cl)cc1)c1ccc2cccnc2c1O [Example 4, 8-Hydroxy-N-(4-chlorobenzyl)quinoline-7-carboxamide]	0.71 µg/mL (≈ 2.27 µM)	1 µg/mL (≈ 3.2 µM)	0.71 µg/mL (≈ 2.27 µM)	0.5 µg/mL (≈ 1.6 µM)	0.35 µg/mL (≈ 1.12 µM)	2 µg/mL (≈ 6.39 µM)			
O=C(NCc1ccco1)c1ccc2cccnc2c1O [Example 9, 8-Hydroxy-N-(furan-2-ylmethyl)quinoline-7-carboxamide]	0.71 µg/mL (≈ 2.65 µM)	0.71 µg/mL (≈ 2.65 µM)	0.71 µg/mL (≈ 2.65 µM)	1 µg/mL (≈ 3.73 µM)	1 µg/mL (≈ 3.73 µM)	0.71 µg/mL (≈ 2.65 µM)			
Cc1cc(C2CCCCC2)n(O)c(=O)c1 [ciclopirox]								completely inhibited	
O=C(Nc1ccccc1)c1ccc2cccnc2c1O [Example 7, 8-Hydroxy-N-phenyl-quinoline-7-carboxamide]	2 µg/mL (≈ 7.57 µM)	1 µg/mL (≈ 3.78 µM)	0.5 µg/mL (≈ 1.89 µM)	0.71 µg/mL (≈ 2.69 µM)	0.5 µg/mL (≈ 1.89 µM)	0.5 µg/mL (≈ 1.89 µM)			
